Here are results for four molecules from publication PMC3761942 (Bioorganic & medicinal chemistry, 2013).

“Also recorded” adds a separate entry of the source.

In one data set the target is guanase. To be noted: in tissue cultures; cited from earlier work.
A short description of data set [1]: Chemical stability in aqueous medium. The format is physicochemical.
In data set [2] the target is T1, guanase from rabbit liver (Oryctolagus cuniculus, UniProt G1T386).
T1 sequence (G1T386 1-454): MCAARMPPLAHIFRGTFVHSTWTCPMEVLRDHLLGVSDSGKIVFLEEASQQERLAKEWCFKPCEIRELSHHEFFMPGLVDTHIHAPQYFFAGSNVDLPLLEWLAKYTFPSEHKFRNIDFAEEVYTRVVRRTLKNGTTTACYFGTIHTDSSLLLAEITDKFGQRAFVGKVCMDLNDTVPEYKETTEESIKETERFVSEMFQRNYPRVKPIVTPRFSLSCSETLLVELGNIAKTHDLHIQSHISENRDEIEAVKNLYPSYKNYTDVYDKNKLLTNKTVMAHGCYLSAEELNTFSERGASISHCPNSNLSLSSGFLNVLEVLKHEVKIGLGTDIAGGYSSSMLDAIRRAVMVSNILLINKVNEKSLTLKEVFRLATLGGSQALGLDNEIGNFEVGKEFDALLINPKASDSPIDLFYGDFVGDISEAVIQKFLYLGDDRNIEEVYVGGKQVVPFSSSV
The data set is classed as biochemical.

A word on the IC50: it is the midpoint of a concentration-inhibition curve. Turning to `O=C1NC(O)CNc2nc[nH]c21` (centres unmarked) [Azepinomycin], on guanase, the IC50 was approximately 5 µM.
Consider `O=C1NCC(O)Nc2c1ncn2Cc1ccccc1` (centres unmarked) [Compound 1, 3-Benzyl-5-hydroxy-4,5,6,7-tetrahydroimidazo[4,5-e] [1,4]diazepin-8(3H)-one], for which, in data set [1] (aqueous acidic environment (1N HCl)), the “Stability in aqueous acidic environment” value was “reasonably stable”. In addition, the “Stability under neutral conditions” value in data set [1] (neutral aqueous medium) was “quite unstable and decomposed; also recorded: decomposes in neutral aqueous medium over time”.
As a reminder, the Ki is a measure of affinity in units of concentration, obtained from inhibition or displacement. The low end stands for higher affinity, the high end for lower affinity. In turn, `COC1CNC(=O)c2nc[nH]c2N1Cc1ccccc1` (centres unmarked) [Compound 9, 4-Benzyl-5-methoxy-4,5,6,7-tetrahydroimidazo[4,5-e][1,4]diazepin-8(3H)-one] yielded a Ki in data set [2] (Ki) of approximately 8 µM.
What is called Km is the concentration of substrate that gives half-maximal velocity. As for `Nc1nc2nc[nH]c2c(=O)[nH]1` [guanine, reference compound], the Km in data set [2] (read-out: KM of enzyme with guanine as substrate, 25 °C, pH 7.4) worked out at 5.5 µM.
